# Values joined by “and” are separate entries in the source; they are usually repeats but may differ in a detail not shown here. Equal values may be shown once.
# Tested on: liver
# Experiment: Lipidomic profiling of liver
# Format: in vivo, mice
# Conditions: for Ceramide 18:1/16:0 content of liver / Ceramide 18:1/18:0 content of liver / Ceramide 18:1/20:0 content of liver / Ceramide 18:1/22:0 content of liver / Ceramide 18:1/22:1 content of liver / Ceramide 18:1/24:0 content of liver / Ceramide 18:1/24:1 content of liver / SM 34:1 content of liver / SM 36:1 content of liver / SM 38:1 content of liver / SM 40:1 content of liver / SM 40:2 content of liver / SM 42:1 content of liver / SM 42:2 content of liver / SM 42:3 content of liver: individual mice; for Ceramide 18:1/16:0 content of liver / Ceramide 18:1/18:0 content of liver / Ceramide 18:1/20:0 content of liver / Ceramide 18:1/22:0 content of liver / Ceramide 18:1/22:1 content of liver / Ceramide 18:1/24:0 content of liver / Ceramide 18:1/24:1 content of liver: raw data Fig 3j; for SM 34:1 content of liver / SM 36:1 content of liver / SM 38:1 content of liver / SM 40:1 content of liver / SM 40:2 content of liver / SM 42:1 content of liver / SM 42:2 content of liver / SM 42:3 content of liver: raw data Fig 3k
# Protocol: Male C57BL6/J mice were obtained from the Animal Resources Centre in Perth (WA, Australia). Mice were housed at 22 ± 1 °C with a controlled 12:12 h light-dark cycle and had ad libitum access to water and either chow (8% calories from fat) or HFD (45% calories from fat)[66] for 4–6 weeks. […] Treatment was commenced at the same time as mice were randomised to dietary groups. The experiments were approved by the UNSW animal care and ethics committee (ACEC 15/48B), and followed guidelines issued by the National Health and Medical Research Council of Australia.
# Lipids were extracted from frozen tissue samples or cells using a two-phase procedure with methyl-tert-butyl ether (MTBE)/methanol/water (10:3:2.5, v/v/v)[67]. Frozen tissue samples (~20 mg) were homogenized in 0.2 mL methanol containing 0.01% butylated hydroxytoluene (BHT), using a Precellys 24 homogenizer and Cryolys cooling unit (Bertin Technologies) with CK14 (1.4-mm ceramic) beads. The homogenates were spiked with an internal standard mixture comprising 5 nmole 19:0/19:0 phosphatidylcholine and 2 nmole each of 17:0/17:0 phosphatidylethanolamine, 17:0/17:0 phosphatidylserine, 17:0/17:0 d5-diacylglycerol, 17:0/17:0 phosphatidylglycerol, 14:0/14:0/14:0/14:0 cardiolipin, 18:1/12:0 SM, 18:1/17:0 ceramide, 18:1/12:0 glucosylceramide, 18:1/12:0 lactosylceramide, 18:1/12:0 sulfatide (all from Avanti Polar Lipids, USA), and 17:0/17:0/17:0 TAG (Cayman Chemical, USA), then transferred to 10 mL screw cap glass tubes. The homogenization tubes containing beads were then washed with another 0.3 mL methanol, and this wash was combined with the first methanol extract, after which 1.7 mL MTBE was added and the samples were sonicated in an ice-cold sonicating water bath (Thermoline Scientific, Australia) for 30 min. Phase separation was induced by addition of 417 µL of mass spectrometry-grade water followed by vortexing and centrifugation at 1000 × g for 10 min. The upper organic phase was collected into 5 mL glass tubes. The lower phase was re-extracted by adding 1 mL MTBE, 300 μL methanol, and 250 μL water. The organic phases were combined in the 5 mL glass tubes and dried under vacuum in a Savant SC210 SpeedVac (Thermo Scientific), then reconstituted in 500 μL methanol and stored at −20 °C until analysis.
# Lipidomic profiling was performed on a QExactive Plus mass spectrometer with heated electrospray ionization (HESI) probe and a Dionex UltiMate 2000 LC pump (Thermo Fisher Scientific). Extracts were resolved on a 2.1 × 100 mm Waters Acquity C18 UPLC column (1.7 µm […]), using a binary gradient in which mobile phase A consisted of acetonitrile:water (60:40), 10 mM ammonium formate, 0.1% formic acid; and mobile phase B was isopropanol:acetonitrile (90:10), 10 mM ammonium formate, 0.1% formic acid[68]. The flow rate was 260 µL/min and column oven 55 °C. Data was acquired in full scan/data-dependent MS^2 mode (full scan resolution 70,000 FWHM, scan range 400–1200 m/z). The ten most abundant ions in each cycle were subjected to MS^2 using an isolation window of 1.4 m/z, collision energy 30 eV, resolution 17,500, maximum integration time 110 ms and dynamic exclusion window 10 s. An exclusion list of background ions was used based on a solvent blank. LipidSearch v4.1.30 software (ThermoFisher Scientific) was used for chromatogram alignment, peak identification and integration. Each lipid peak was manually verified for column elution time and characteristic fragment ions. Data were then exported to an Excel spreadsheet for normalisation of each lipid to its class-specific internal standard, and lipid concentrations were calculated relative to the internal standard.
# Data were log transformed, then subjected to two-tailed t-tests adjusted for multiple comparisons using GraphPad PRISM (Benjamini, Krieger and Yekutieli correction, Q = 1%).
compound,measurement,setting,value
"C[C@@](N)(CO)CCc1ccc(OCc2ccc(Cl)c(Cl)c2)cc1 [P053, (S)-2-amino-4-(4-(3,4-dichlorobenzyloxy)phenyl)-2-methylbutan-1-ol]",Ceramide 18:1/16:0 content of liver,Chow + P053,0.263 and 0.826 and 0.657 and 1.600 and 0.958 and 0.311 and 0.952 and 1.950 and 1.430 and 1.980
same,Ceramide 18:1/18:0 content of liver,Chow + P053,0.468 and 0.536 and 0.500 and 0.564 and 0.490 and 0.488 and 0.800 and 0.676 and 0.526 and 0.572
same,Ceramide 18:1/20:0 content of liver,Chow + P053,0.373 and 0.356 and 0.495 and 0.460 and 0.417 and 0.442 and 0.880 and 0.398 and 0.505 and 0.396
same,Ceramide 18:1/22:0 content of liver,Chow + P053,3.920 and 1.760 and 3.420 and 5.450 and 4.500 and 5.040 and 3.220 and 5.390 and 4.280 and 5.730
same,Ceramide 18:1/22:1 content of liver,Chow + P053,0.723 and 0.782 and 0.523 and 0.904 and 0.601 and 0.629 and 0.682 and 0.527 and 0.912 and 0.679
same,Ceramide 18:1/24:0 content of liver,Chow + P053,3.590 and 2.080 and 4.670 and 4.260 and 5.640 and 4.820 and 3.660 and 3.820 and 3.320 and 4.860
same,Ceramide 18:1/24:1 content of liver,Chow + P053,6.030 and 5.880 and 4.990 and 7.190 and 10.500 and 7.070 (2×) and 5.770 and 7.700 and 9.200
same,SM 34:1 content of liver,Chow + P053,166.01 and 387.90 and 294.94 and 188.63 and 560.02 and 385.72 and 339.20 and 244.42 and 416.06 and 213.21
same,SM 36:1 content of liver,Chow + P053,17.50 and 23.09 and 28.72 and 28.48 and 31.35 and 32.32 and 36.07 and 17.60 and 29.53 and 28.44
same,SM 38:1 content of liver,Chow + P053,20.23 and 36.64 and 18.78 and 30.07 and 30.24 and 24.30 and 33.98 and 28.61 and 27.66 and 25.39
same,SM 40:1 content of liver,Chow + P053,190.28 and 236.56 and 278.04 and 382.12 and 238.06 and 386.25 and 326.88 and 330.28 and 377.35 and 269.17
same,SM 40:2 content of liver,Chow + P053,31.01 and 36.97 and 24.71 and 36.72 and 38.54 and 35.80 and 48.00 and 37.75 and 38.85 and 32.99
same,SM 42:1 content of liver,Chow + P053,17.79 and 25.33 and 19.04 and 17.96 and 14.02 and 33.47 and 24.89 and 25.97 and 20.36 and 14.52
same,SM 42:2 content of liver,Chow + P053,265.43 and 723.53 and 60.59 and 173.83 and 445.88 and 448.77 and 411.18 and 225.87 and 409.74 and 354.33
same,SM 42:3 content of liver,Chow + P053,12.99 and 95.71 and 34.45 and 42.03 and 46.27 and 40.91 and 37.02 and 32.31 and 26.34 and 23.58
same,Ceramide 18:1/16:0 content of liver,HFD + P053,1.320 and 0.972 and 0.437 and 1.310 and 0.312 and 0.006 and 2.340 and 2.140 and 1.290 and 1.500
same,Ceramide 18:1/18:0 content of liver,HFD + P053,0.435 and 0.273 and 0.474 and 0.459 and 0.643 and 0.366 and 0.820 and 0.267 and 0.974 and 0.526
same,Ceramide 18:1/20:0 content of liver,HFD + P053,0.582 and 0.659 and 1.010 and 1.000 and 0.971 and 0.637 and 0.716 and 0.382 and 1.670 and 1.340
same,Ceramide 18:1/22:0 content of liver,HFD + P053,5.900 and 4.030 and 8.630 and 5.080 and 3.630 and 4.930 and 8.270 and 6.990 and 8.250 and 9.280
same,Ceramide 18:1/22:1 content of liver,HFD + P053,0.333 and 0.644 and 0.674 and 0.925 and 0.703 and 0.380 and 0.572 and 0.319 and 0.786 and 0.444
same,Ceramide 18:1/24:0 content of liver,HFD + P053,5.470 and 0.260 and 4.890 and 2.480 and 1.780 and 2.580 and 4.330 and 4.610 and 7.520 and 5.820
same,Ceramide 18:1/24:1 content of liver,HFD + P053,6.580 and 2.880 and 4.960 and 4.030 and 5.720 and 2.860 and 6.330 and 6.390 and 11.600 and 5.550
same,SM 34:1 content of liver,HFD + P053,482.51 and 71.17 and 450.03 and 341.58 and 602.82 and 140.43 and 342.86 and 326.17 and 1409.61 and 780.28
same,SM 36:1 content of liver,HFD + P053,53.21 and 102.16 and 78.05 and 79.54 and 65.66 and 116.67 and 78.22 and 28.49 and 259.61 and 108.18
same,SM 38:1 content of liver,HFD + P053,71.47 and 53.18 and 46.58 and 23.22 and 42.32 and 78.12 and 59.56 and 48.00 and 174.38 and 50.63
same,SM 40:1 content of liver,HFD + P053,580.97 and 447.50 and 671.33 and 376.94 and 209.01 and 396.09 and 367.60 and 345.17 and 872.91 and 711.11
same,SM 40:2 content of liver,HFD + P053,46.18 and 47.77 and 24.90 and 19.09 and 21.42 and 31.04 and 27.87 and 23.30 and 72.99 and 30.73
same,SM 42:1 content of liver,HFD + P053,18.56 and 11.22 and 9.61 and 4.95 and 13.26 and 9.80 and 20.61 and 8.52 and 19.00 and 16.17
same,SM 42:2 content of liver,HFD + P053,531.45 and 245.25 and 263.63 and 192.83 and 186.28 and 157.29 and 222.03 and 342.17 and 572.48 and 255.77
same,SM 42:3 content of liver,HFD + P053,38.83 and 26.76 and 24.26 and 23.94 and 22.31 and 29.44 and 41.75 and 49.23 and 92.66 and 37.38
same,265 lipids measured in liver,chow or HFD,none was significantly affected

# — PMC6104039 (Nature Communications, 2018)
